Tested on: DosRST regulon
Format: cell-based
[1] = Rv1834, WT Mtb treated with HC102A compared to DMSO
[2] = Rv1996, WT Mtb treated with HC102A compared to DMSO
[3] = Rv1997 ctpF, WT Mtb treated with HC102A compared to DMSO
[4] = Rv2003c, WT Mtb treated with HC102A compared to DMSO
[5] = Rv2004c, WT Mtb treated with HC102A compared to DMSO
[6] = Rv2005c, WT Mtb treated with HC102A compared to DMSO
[7] = Rv2006 otsB, WT Mtb treated with HC102A compared to DMSO
[8] = Rv2007c fdxA, WT Mtb treated with HC102A compared to DMSO
[9] = Rv2027c, WT Mtb treated with HC102A compared to DMSO
[10] = Rv2028c, WT Mtb treated with HC102A compared to DMSO
[11] = Rv2030c, WT Mtb treated with HC102A compared to DMSO
[12] = Rv2032, WT Mtb treated with HC102A compared to DMSO
[13] = Rv2623, WT Mtb treated with HC102A compared to DMSO
[14] = Rv2624c, WT Mtb treated with HC102A compared to DMSO

Structure (SMILES): C[C@@H]1CC(C)(C)C[C@]2(C1)NC(=O)NC2=O (racemic) [HC102A, 7,7,9-trimethyl-1,3-diazaspiro[4.5]decane-2,4-dione]
- Counts per million (CPM) WT_HC102A2, gene MT1861 (Rv1813c, WT Mtb treated with HC102A, replicate 2): 147.2 CPM
- Fold change, gene MT1882 [1]: 0.4723
- log2 Fold change, gene MT1882 [1]: −1.082
- Counts per million (CPM) WT_HC102A1, gene MT1882 (Rv1834, WT Mtb treated with HC102A, replicate 1): 37.79 CPM
- Counts per million (CPM) WT_HC102A2, gene MT1882 (Rv1834, WT Mtb treated with HC102A, replicate 2): 31.49 CPM
- Fold change, gene MT2052 [2]: 0.01797
- log2 Fold change, gene MT2052 [2]: −5.798
- Counts per million (CPM) WT_HC102A1, gene MT2052 (Rv1996, WT Mtb treated with HC102A, replicate 1): 561.6 CPM
- Counts per million (CPM) WT_HC102A2, gene MT2052 (Rv1996, WT Mtb treated with HC102A, replicate 2): 277.3 CPM
- Fold change, gene MT2053 [3]: 0.04882
- log2 Fold change, gene MT2053 [3]: −4.356
- Counts per million (CPM) WT_HC102A1, gene MT2053 (Rv1997 ctpF, WT Mtb treated with HC102A, replicate 1): 105.1 CPM
- Counts per million (CPM) WT_HC102A2, gene MT2053 (Rv1997 ctpF, WT Mtb treated with HC102A, replicate 2): 117.4 CPM
- Fold change, gene MT2059 [4]: 0.2227
- log2 Fold change, gene MT2059 [4]: −2.167
- Counts per million (CPM) WT_HC102A1, gene MT2059 (Rv2003c, WT Mtb treated with HC102A, replicate 1): 203.6 CPM
- Counts per million (CPM) WT_HC102A2, gene MT2059 (Rv2003c, WT Mtb treated with HC102A, replicate 2): 97.15 CPM
- Fold change, gene MT2060 [5]: 0.2044
- log2 Fold change, gene MT2060 [5]: −2.291
- Counts per million (CPM) WT_HC102A1, gene MT2060 (Rv2004c, WT Mtb treated with HC102A, replicate 1): 661.2 CPM
- Counts per million (CPM) WT_HC102A2, gene MT2060 (Rv2004c, WT Mtb treated with HC102A, replicate 2): 393.9 CPM
- Fold change, gene MT2061 [6]: 0.1302
- log2 Fold change, gene MT2061 [6]: −2.942
- Counts per million (CPM) WT_HC102A1, gene MT2061 (Rv2005c, WT Mtb treated with HC102A, replicate 1): 308.4 CPM
- Counts per million (CPM) WT_HC102A2, gene MT2061 (Rv2005c, WT Mtb treated with HC102A, replicate 2): 262.8 CPM
- Fold change, gene MT2062 [7]: 0.2411
- log2 Fold change, gene MT2062 [7]: −2.052
- Counts per million (CPM) WT_HC102A1, gene MT2062 (Rv2006 otsB, WT Mtb treated with HC102A, replicate 1): 140.8 CPM
- Counts per million (CPM) WT_HC102A2, gene MT2062 (Rv2006 otsB, WT Mtb treated with HC102A, replicate 2): 181.1 CPM
- Fold change, gene MT2063 [8]: 0.2221
- log2 Fold change, gene MT2063 [8]: −2.171
- Counts per million (CPM) WT_HC102A1, gene MT2063 (Rv2007c fdxA, WT Mtb treated with HC102A, replicate 1): 1,505.73 CPM
- Counts per million (CPM) WT_HC102A2, gene MT2063 (Rv2007c fdxA, WT Mtb treated with HC102A, replicate 2): 2,151.57 CPM
- Fold change, gene MT2086 [9]: 0.3538
- log2 Fold change, gene MT2086 [9]: −1.499
- Counts per million (CPM) WT_HC102A1, gene MT2086 (Rv2027c, WT Mtb treated with HC102A, replicate 1): 90.79 CPM
- Counts per million (CPM) WT_HC102A2, gene MT2086 (Rv2027c, WT Mtb treated with HC102A, replicate 2): 84.31 CPM
- Fold change, gene MT2087 [10]: 0.08322
- log2 Fold change, gene MT2087 [10]: −3.587
- Counts per million (CPM) WT_HC102A1, gene MT2087 (Rv2028c, WT Mtb treated with HC102A, replicate 1): 62.1 CPM
- Counts per million (CPM) WT_HC102A2, gene MT2087 (Rv2028c, WT Mtb treated with HC102A, replicate 2): 56.17 CPM
- Fold change, gene MT2089 [11]: 0.06954
- log2 Fold change, gene MT2089 [11]: −3.846
- Counts per million (CPM) WT_HC102A1, gene MT2089 (Rv2030c, WT Mtb treated with HC102A, replicate 1): 1,125.52 CPM
- Counts per million (CPM) WT_HC102A2, gene MT2089 (Rv2030c, WT Mtb treated with HC102A, replicate 2): 784.7 CPM
- Fold change, gene MT2091 [12]: 0.06482
- log2 Fold change, gene MT2091 [12]: −3.947
- Counts per million (CPM) WT_HC102A1, gene MT2091 (Rv2032, WT Mtb treated with HC102A, replicate 1): 270.6 CPM
- Counts per million (CPM) WT_HC102A2, gene MT2091 (Rv2032, WT Mtb treated with HC102A, replicate 2): 336.8 CPM
- Fold change, gene MT2698 [13]: 0.02424
- log2 Fold change, gene MT2698 [13]: −5.366
- Counts per million (CPM) WT_HC102A1, gene MT2698 (Rv2623, WT Mtb treated with HC102A, replicate 1): 903.6 CPM
- Counts per million (CPM) WT_HC102A2, gene MT2698 (Rv2623, WT Mtb treated with HC102A, replicate 2): 611.4 CPM
- Fold change, gene MT2699 [14]: 0.052
- log2 Fold change, gene MT2699 [14]: −4.265
- Counts per million (CPM) WT_HC102A1, gene MT2699 (Rv2624c, WT Mtb treated with HC102A, replicate 1): 106.2 CPM
- Counts per million (CPM) WT_HC102A2, gene MT2699 (Rv2624c, WT Mtb treated with HC102A, replicate 2): 108.4 CPM
- Fold change, gene MT2700 (Rv2625c, WT Mtb treated with HC102A compared to DMSO): 0.02819
